# Laboratory results as given in patent US6166004A, “Combinations of HIV protease inhibitors with reverse transcriptase inhibitors” (Novartis Finance Corporation, priority 1996, dated 2000).
# How the values were obtained:
# [1] = tested on: HIV-1 (pNL4-3 clone) in HeLaT4 cells; assay: Transient DNA transfection assay in HeLaT4 cells (HIV clone pNL4-3), potency; type: cell-based; conditions: transfection system
# Description: (§1) Inhibitor-resistant HIV-1 protease variants are cloned as follows:
# (§2) By way of PCR-supported mutagenesis and cloning, HIV-1 protease mutants are generated that are based on the infectious clone pNL4-3 (freely available via the "NIH AIDS reference and reagent program", the original reference is A. Adachi et al. J. Virol (1986) 59, 284-91--but it can, of course, be any other HIV clone, or even clinical material, provided that comparability is ensured). […] The cloned fragments are, for example, only 500 base pairs in length, all of the remainder being unchanged. By using mutations in always the same clone, direct comparability is ensured, which would not be the case in a direct comparison of clinical samples or of different HIV clones.
# (§3) That system is used as a transient DNA transfection system for tests:
# (§4) 1) in order to identify possible cross-resistances of protease variants to several protease inhibitors; and
# (§5) 2) in order to establish the potency and resistance profile of novel inhibitor candidates.
# (§6) Instead of the strains mentioned, there may be used any human T4-positive cells, such as the HeLaT4 cells, deposited under that name by Richard Axel and Paul Maddon in "NIH AIDS reference and reagent program" and obtainable via that source.
# [2] = tested on: HIV-1 protease resistant variant (451/76F strain)
# Description: as §1, §2, §3, §4, §5, §6
# [3] = tested on: 46I/47V/50V (VX478) strain; assay: Transient DNA transfection assay, resistant strain 46I/47V/50V (VX478); type: cell-based, HIV-1; conditions: 10 nM, not quantified
# Description: as §1, §2, §3, §4, §5, §6
smiles,measurement,setting,value
"COC(=O)N[C@H](C(=O)N[C@@H](Cc1ccccc1)[C@@H](O)CN(Cc1ccc(-c2ccccn2)cc1)NC(=O)[C@@H](NC(=O)OC)C(C)(C)C)C(C)(C)C [Example 46, 1-[4-(Pyridin-2-yl)-phenyl]-4(S)-hydroxy-5(S)-2,5-bis[N-(N-methoxycarbonyl-(L)-tert-leucyl)amino]-6-phenyl-2-azahexane]",in vitro potency compared with saquinavir,[1],in practical terms better than that of saquinavir
same,activity against resistant variant compared with other protease inhibitors,[2],"comparable with saquinavir and better than that of indinavir (Merck & Co., Inc., see below) or ritonavir"
same,"activity compared with saquinavir, ritonavir and indinavir",[3],"more potent (not quantified) than that of saquinavir, ritonavir and indinavir"
